# Measurements as given in article PMC8854719, “Phase 1A/1B dose-escalation and -expansion study to evaluate the safety, pharmacokinetics, food effects and antitumor activity of pamiparib in advanced solid tumours” (British Journal of Cancer, 2021).
# Experiments:
# [1] = test system: epithelial ovarian cancer (EOC); assay: GCIG CA-125 response; type: in vivo, human; settings: CA-125–evaluable population (n=12)
# Procedure: Tumour response was evaluated by RECIST v1.1. For patients with ovarian cancer, tumour response was assessed per RECIST v1.1 and by Gynecologic Cancer Intergroup (GCIG) CA-125 criteria. Tumour response for patients with prostate cancer was assessed by Prostate Cancer Clinical Trials Working Group 2 (PCWG2) criteria. Objective response rate (ORR) was defined as the proportion of patients achieving a confirmed complete response (CR) or partial response (PR) on study treatment. Blood tumour antigens (e.g., carcinoembryonic antigen for colorectal cancer, CA-125 for ovarian cancer and prostate-specific antigen [PSA] for mCRPC) were assessed during screening, every 6 weeks after the first pamiparib dose in the first 12 months, and every 9 weeks thereafter.
# The safety population comprised all patients in the dose-escalation and dose-expansion phases who received at least one dose of pamiparib (Supplementary Table S2). Patients in the safety analysis set for whom valid pamiparib PK parameters were estimated and for whom evaluable PD results were available represented the PK population and the PD population, respectively. The efficacy-evaluable population included patients in the safety analysis set who had at least one evaluable postbaseline tumour assessment or those who discontinued due to clinical disease progression or early death before tumour assessment could be performed. […]
# [2] = test system: ovarian cancer; settings: Phase 1 study in China (NCT03333915), high-grade ovarian cancer refractory or resistant to platinum; cited from earlier work
# [3] = Food-effects cohort: PK fasted vs high-fat meal; type: in vivo, human
# Procedure: Patients in the food-effects cohort received a single dose of pamiparib 60 mg (based on the RP2D) on day 1 of cycle 1, followed by a 5-day washout; patients then received another single dose of 60 mg on day 6. Seven patients in sequence 1 (fast followed by fed) received pamiparib after a ≥ 10-h fast on day 1 and after consuming a standard high-fat meal (described in the Supplemental Appendix) 30 min prior to drug administration on day 6. Six patients in sequence 2 (fed followed by fast) received pamiparib after a high-fat meal on day 1 and after a ≥ 10-h fast on Day 6. From day 8 of cycle 1 onward, patients received 60-mg BID treatment.
# Pamiparib in plasma was measured using a validated liquid chromatography-tandem–mass spectrometry assay with a lower limit of quantification of 1.0 ng/mL. The collection schedule for blood samples used to assess the PK profile is presented in the Supplemental Appendix. Summary PK parameters, including area under the concentration-time curve from time 0 to 9 h (AUC0-9) or infinity (AUC0-inf), maximal plasma concentration (Cmax) and time to maximal plasma concentration (Tmax), were estimated. The pharmacodynamic (PD) activity of pamiparib was explored through the evaluation of poly(ADP-ribose [PAR]) formation in peripheral blood mononuclear cells (PBMCs) after pamiparib administration. The schedule for blood sample collection (PK and PBMCs) and additional assessment information for PAR levels in PBMCs and pharmacodynamic activity is presented in the Supplemental Appendix. Antitumor activity was assessed by radiographic imaging (computed tomography or magnetic resonance imaging) during screening, within 28 days of first pamiparib dose, every 6 weeks in the first 12 months and every 9 weeks thereafter.
# An example of a recommended United States Food and Drug Administration (US FDA) standard high-fat meal comprises two eggs fried in butter, two strips of bacon, two slices of toast with butter, 4 ounces of hash brown potatoes, and 8 ounces of whole milk.
# The PK profile of pamiparib was assessed based on blood samples collected at predose and 0.5, 1, 2, 4, 6, 9, 24, and 48 hours postdose on Days 1-3 and then at predose and 0.5, 1, 2, 4, 6, and 9 hours postdose on Day 17 of Cycle 1 in Phase 1A. Sparse PK samples were collected in phase 1B Part A. The food effect on the PK of pamiparib was assessed based on blood samples collected at predose and 0.5, 1, 2, 4, 7, 24, and 48 hours postdose on Day 1 and Day 6 of Cycle 1 in phase 1B Part B.
# [4] = single 60 mg dose, high-fat breakfast vs fasted
smiles,measurement,setting,value
C[C@]12CCCN1CC1=NNC(=O)c3cc(F)cc4[nH]c2c1c34 [pamiparib],GCIG CA-125 response rate,[1],83.3%
same,Median time to CA-125 response,[1],1.38 months
same,Clinical benefit rate,[2],62.5%
same,ORR,[2],25.0%
same,Food effects on pharmacokinetics (in words),[3]; 60 mg single dose,no food effects
same,Tmax,"[3]; human, plasma, oral, single 60 mg dose with a high-fat breakfast, read-out: Median Tmax",7 h
same,Reduction of AUC0-inf with food,[3]; [4],12%
same,Reduction of Cmax with food,[3]; [4],41%
